Activity calls are given as the source filed them. No cut-off for these calls is given here.
Key:
EKVX = assay: Antiproliferative activity against human EKVX cells assessed as cell growth at 10 uM incubated for 48 hrs by sulforhodamine B assay relative to control; assay type: functional; settings: read-out: Activity
MDA-MB-231 [1] = assay: Growth inhibition of human MDA-MB-231 cells at 25 uM incubated for 24 hrs by cell counter analysis relative to control; assay type: functional; settings: read-out: GI
MCF7 [2] = assay: Induction of cell cycle arrest in human MCF7 cells assessed as increase in accumulation of cells at S phase at 25 uM incubated for 72 hrs by propidium iodide staining based flow cytometry analysis; assay type: functional
MDA-MB-231 [3] = assay: Growth inhibition of human MDA-MB-231 cells at 50 uM incubated for 72 hrs by cell counter analysis relative to control; assay type: functional; settings: read-out: GI
UACC-257 = assay: Antiproliferative activity against human UACC-257 cells assessed as cell growth at 10 uM incubated for 48 hrs by sulforhodamine B assay relative to control; assay type: functional; settings: read-out: Activity
NCI-H522 = assay: Antiproliferative activity against human NCI-H522 cells assessed as cell growth at 10 uM incubated for 48 hrs by sulforhodamine B assay relative to control; assay type: functional; settings: read-out: Activity
ACHN = assay: Antiproliferative activity against human ACHN cells assessed as cell growth at 10 uM incubated for 48 hrs by sulforhodamine B assay relative to control; assay type: functional; settings: read-out: Activity
MCF7 [4] = assay: Growth inhibition of human MCF7 cells at 25 uM incubated for 72 hrs by cell counter analysis relative to control; assay type: functional; settings: read-out: GI
[5] = Growth inhibition of human MCF-10A cells at 10 uM incubated for 24 hrs by cell counter analysis relative to control; assay type: toxicity, cell-based; settings: read-out: GI
MOLT-4 = assay: Antiproliferative activity against human MOLT-4 cells assessed as cell growth at 10 uM incubated for 48 hrs by sulforhodamine B assay relative to control; assay type: functional; settings: read-out: Activity
MCF7 [6] = assay: Inhibition of colony formation in human MCF7 cells incubated for 72 hrs by crystal violet staining assay; assay type: functional, cell-based
MCF7 [7] = assay: Growth inhibition of human MCF7 cells at 10 uM incubated for 72 hrs by cell counter analysis relative to control; assay type: functional; settings: read-out: GI
MCF7 [8] = assay: Induction of apoptosis in human MCF7 cells assessed as increase in ROS production at 5 to 25 uM by H2DCFDA staining based flow cytometric analysis; assay type: functional, cell-based; settings: dose 5-25 µM
MCF7 [9] = assay: Induction of cell cycle arrest in human MCF7 cells assessed as increase in accumulation of cells at sub-G1 phase at 5 uM incubated for 72 hrs by propidium iodide staining based flow cytometry analysis; assay type: functional
HCT-116 = assay: Antiproliferative activity against human HCT-116 cells assessed as cell growth at 10 uM incubated for 48 hrs by sulforhodamine B assay relative to control; assay type: functional; settings: read-out: Activity
LOX IMVI = assay: Antiproliferative activity against human LOX IMVI cells assessed as cell growth at 10 uM incubated for 48 hrs by sulforhodamine B assay relative to control; assay type: functional; settings: read-out: Activity
MDA-MB-231 [10] = assay: Growth inhibition of human MDA-MB-231 cells at 50 uM incubated for 24 hrs by cell counter analysis relative to control; assay type: functional; settings: read-out: GI
MDA-MB-435 = assay: Antiproliferative activity against human MDA-MB-435 cells assessed as cell growth at 10 uM incubated for 48 hrs by sulforhodamine B assay relative to control; assay type: functional; settings: read-out: Activity
MDA-MB-231 [11] = assay: Growth inhibition of human MDA-MB-231 cells at 25 uM incubated for 72 hrs by cell counter analysis relative to control; assay type: functional; settings: read-out: GI
PC-3 = assay: Antiproliferative activity against human PC-3 cells assessed as cell growth at 10 uM incubated for 48 hrs by sulforhodamine B assay relative to control; assay type: functional; settings: read-out: Activity
CAKI-1 = assay: Antiproliferative activity against human CAKI-1 cells assessed as cell growth at 10 uM incubated for 48 hrs by sulforhodamine B assay relative to control; assay type: functional; settings: read-out: Activity
MCF7 [12] = assay: Growth inhibition of human MCF7 cells at 50 uM incubated for 24 hrs by cell counter analysis relative to control; assay type: functional; settings: read-out: GI
MDA-MB-468 = assay: Antiproliferative activity against human MDA-MB-468 cells assessed as cell growth at 10 uM incubated for 48 hrs by sulforhodamine B assay relative to control; assay type: functional; settings: read-out: Activity
RPMI-8226 = assay: Antiproliferative activity against human RPMI-8226 cells assessed as cell growth at 10 uM incubated for 48 hrs by sulforhodamine B assay relative to control; assay type: functional; settings: read-out: Activity
MCF7 [13] = assay: Growth inhibition of human MCF7 cells at 50 uM incubated for 72 hrs by cell counter analysis relative to control; assay type: functional; settings: read-out: GI
NCI-H226 = assay: Antiproliferative activity against human NCI-H226 cells assessed as cell growth at 10 uM incubated for 48 hrs by sulforhodamine B assay relative to control; assay type: functional; settings: read-out: Activity
KM12 = assay: Antiproliferative activity against human KM12 cells assessed as cell growth at 10 uM incubated for 48 hrs by sulforhodamine B assay relative to control; assay type: functional; settings: read-out: Activity
SNB-75 = assay: Antiproliferative activity against human SNB-75 cells assessed as cell growth at 10 uM incubated for 48 hrs by sulforhodamine B assay relative to control; assay type: functional; settings: read-out: Activity
[14] = Growth inhibition of human MCF-10A cells at 50 uM incubated for 24 to 48 hrs by cell counter analysis relative to control; assay type: toxicity, cell-based; settings: time 24-48 hrs, read-out: GI
SR = assay: Antiproliferative activity against human SR cells assessed as cell growth at 10 uM incubated for 48 hrs by sulforhodamine B assay relative to control; assay type: functional; settings: read-out: Activity
MCF7 [15] = assay: Induction of cell cycle arrest in human MCF7 cells assessed as increase in accumulation of cells at sub-G1 phase at 10 uM incubated for 72 hrs by propidium iodide staining based flow cytometry analysis; assay type: functional
MDA-MB-231 [16] = assay: Antiproliferative activity against human MDA-MB-231 cells assessed as cell growth at 10 uM incubated for 48 hrs by sulforhodamine B assay relative to control; assay type: functional; settings: read-out: Activity
T47D = assay: Antiproliferative activity against human T47D cells assessed as cell growth at 10 uM incubated for 48 hrs by sulforhodamine B assay relative to control; assay type: functional; settings: read-out: Activity
IGROV-1 = assay: Antiproliferative activity against human IGROV-1 cells assessed as cell growth at 10 uM incubated for 48 hrs by sulforhodamine B assay relative to control; assay type: functional; settings: read-out: Activity
K562 = assay: Antiproliferative activity against human K562 cells assessed as cell growth at 10 uM incubated for 48 hrs by sulforhodamine B assay relative to control; assay type: functional; settings: read-out: Activity
HCT-15 = assay: Antiproliferative activity against human HCT-15 cells assessed as cell growth at 10 uM incubated for 48 hrs by sulforhodamine B assay relative to control; assay type: functional; settings: read-out: Activity
MCF7 [17] = assay: Induction of cell cycle arrest in human MCF7 cells assessed as decrease in accumulation of cells at G0/G1 phase incubated for 72 hrs by propidium iodide staining based flow cytometry analysis; assay type: functional
HOP-62 = assay: Antiproliferative activity against human HOP-62 cells assessed as cell growth at 10 uM incubated for 48 hrs by sulforhodamine B assay relative to control; assay type: functional; settings: read-out: Activity
[18] = Growth inhibition of human MCF-10A cells at 10 uM incubated for 72 hrs by cell counter analysis relative to control; assay type: toxicity, cell-based; settings: read-out: GI
MDA-MB-231 [19] = assay: Growth inhibition of human MDA-MB-231 cells at 10 uM incubated for 72 hrs by cell counter analysis relative to control; assay type: functional; settings: read-out: GI
MCF7 [20] = assay: Growth inhibition of human MCF7 cells at 10 uM incubated for 24 hrs by cell counter analysis relative to control; assay type: functional; settings: read-out: GI
SK-OV-3 = assay: Antiproliferative activity against human SK-OV-3 cells assessed as cell growth at 10 uM incubated for 48 hrs by sulforhodamine B assay relative to control; assay type: functional; settings: read-out: Activity
MDA-MB-231 [21] = assay: Growth inhibition of human MDA-MB-231 cells at 10 uM incubated for 24 hrs by cell counter analysis relative to control; assay type: functional; settings: read-out: GI
MCF7 [22] = assay: Induction of cell cycle arrest in human MCF7 cells assessed as increase in accumulation of cells at G2/M phase at 5 uM incubated for 72 hrs by propidium iodide staining based flow cytometry analysis; assay type: functional
A549 = assay: Antiproliferative activity against human A549 cells assessed as cell growth at 10 uM incubated for 48 hrs by sulforhodamine B assay relative to control; assay type: functional; settings: read-out: Activity
MCF7 [23] = assay: Antiproliferative activity against human MCF7 cells assessed as cell growth at 10 uM incubated for 48 hrs by sulforhodamine B assay relative to control; assay type: functional; settings: read-out: Activity
UO-31 = assay: Antiproliferative activity against human UO-31 cells assessed as cell growth at 10 uM incubated for 48 hrs by sulforhodamine B assay relative to control; assay type: functional; settings: read-out: Activity
MCF7 [24] = assay: Induction of cell cycle arrest in human MCF7 cells assessed as increase in accumulation of cells at G2/M phase at 10 to 25 uM incubated for 72 hrs by propidium iodide staining based flow cytometry analysis; assay type: functional; settings: dose 10-25 µM
[25] = Growth inhibition of human MCF-10A cells at 25 uM incubated for 24 to 48 hrs by cell counter analysis relative to control; assay type: toxicity, cell-based; settings: time 24-48 hrs, read-out: GI
MCF7 [26] = assay: Growth inhibition of human MCF7 cells at 25 uM incubated for 24 hrs by cell counter analysis relative to control; assay type: functional; settings: read-out: GI
SF-295 = assay: Antiproliferative activity against human SF-295 cells assessed as cell growth at 10 uM incubated for 48 hrs by sulforhodamine B assay relative to control; assay type: functional; settings: read-out: Activity

## CC(=O)c1c(C)[nH]c2c1c(-c1ccc3c(c1)OCO3)nc1ccccc12
EKVX
  growth at 10 µM: 88.3%
MDA-MB-231 [1]
  inhibition of growth at 25 µM: 48%
MCF7 [2]
  Activity: Active
MDA-MB-231 [3]
  inhibition of growth at 50 µM: 74%
UACC-257
  growth at 10 µM: 73.9%
NCI-H522
  growth at 10 µM: 101%
ACHN
  growth at 10 µM: 92.4%
MCF7 [4]
  inhibition of growth at 25 µM: 41%
[5]
  inhibition at 24 h, 10 µM: 14%
MOLT-4
  growth at 10 µM: 107%
MCF7 [6]
  inhibition: Dose-Dependent Effect
MCF7 [7]
  inhibition of growth at 10 µM: 25%
MCF7 [8]
  Activity: Active
MCF7 [9]
  Activity: Active
HCT-116
  growth at 10 µM: 84.3%
LOX IMVI
  growth at 10 µM: 86.5%
MDA-MB-231 [10]
  inhibition of growth at 50 µM: 60%
MDA-MB-435
  growth at 10 µM: 42.1%
MDA-MB-231 [11]
  inhibition of growth at 25 µM: 35%
PC-3
  growth at 10 µM: 75.8%
CAKI-1
  growth at 10 µM: 58.9%
MCF7 [12]
  inhibition of growth at 50 µM: 54%
MDA-MB-468
  growth at 10 µM: 59.5%
RPMI-8226
  growth at 10 µM: 90.3%
MCF7 [13]
  inhibition of growth at 50 µM: 70%
NCI-H226
  growth at 10 µM: 65.6%
KM12
  growth at 10 µM: 74.6%
SNB-75
  growth at 10 µM: 46.5%
[14]
  inhibition at 50 µM: 63%
SR
  growth at 10 µM: 31.6%
MCF7 [15]
  Activity: Active
MDA-MB-231 [16]
  growth at 10 µM: 82.2%
T47D
  growth at 10 µM: 70.3%
IGROV-1
  growth at 10 µM: 60.1%
K562
  growth at 10 µM: 76.8%
HCT-15
  growth at 10 µM: 69.5%
MCF7 [17]
  Activity: Dose-Dependent Effect
HOP-62
  growth at 10 µM: 67.5%
[18]
  inhibition at 72 h, 10 µM: 11%
MDA-MB-231 [19]
  inhibition of growth at 10 µM: 28%
MCF7 [20]
  inhibition of growth at 10 µM: 32%
SK-OV-3
  growth at 10 µM: 88.8%
MDA-MB-231 [21]
  inhibition of growth at 10 µM: 37%
MCF7 [22]
  Activity: inactive
A549
  growth at 10 µM: 81.7%
MCF7 [23]
  growth at 10 µM: 41.5%
UO-31
  growth at 10 µM: 26.4%
MCF7 [24]
  Activity: Active
[25]
  inhibition at 25 µM: 42%
MCF7 [26]
  inhibition of growth at 25 µM: 38%
SF-295
  growth at 10 µM: 91.1%

— ChEMBL document CHEMBL5620394, “Synthesis of new antiproliferative 1,3,4-substituted-pyrrolo[3,2-c]quinoline derivatives, biological and in silico insights” (Eur J Med Chem, 2023)
